Assay results as given in US8067529B2, “Immunogenic T-helper epitopes from human tumour antigens and immunotherapeutic methods using said epitopes” (Immatics Biotechnologies GmbH, priority 2004, dated 2011).

Tests used:
Type in all cases: cell-based, human
[1] = system: T-helper cell line; experiment: T-helper cell proliferation by thymidine incorporation (stimulation index); settings: T-helper cell line with irradiated autologous PBMC; 10 μM peptide or 3 μg/ml PHA; thymidine incorporation at 72 hours
Protocol: 3×10^5 matured DC were loaded for two hours with 10 μM of peptide […] (SEQ ID NO: 1) in a 24-well plate and extensively washed. Then 4×10^6 fresh autologous PBMC were added onto DC in the presence of 10 ng/ml IL-12p70 in order to favour Th-1 development. PBMC were weekly restimulated with peptide-loaded irradiated autologous PBMC in the presence of 10 U/ml IL-2 and 5 ng/ml IL-7. After 3 and 5 restimulations, T cells were pooled and tested against autologous PBMC in the presence of peptide. […]
T-helper cell activation was tested by cell proliferation as estimated by thymidine incorporation as well as cytokine secretion. […] After 54 hours, 50 μl of tritiated thymidine-containing medium (0.074 MBq/well, Hartmann Analytic, Braunschweig, Germany) was added and thymidine incorporation measured at 72 hours using a scintillation counter (Microbeta, Wallac, Freiburg, Germany). Cell proliferation is expressed as a stimulation index (S.I.), which corresponds to the ratio: (mean cpm of stimulated T cells)/(mean cpm of unstimulated T cells). IL-2 secretion was measured using the IL-2 dependent CTLL-2 cell line. […] Then, thymidine-containing-medium (0.055 MBq/well) was added for 7-8 additional hours and thymidine incorporation was measured as described above. Results are also expressed as a S.I.

[2] = system: IL-2; experiment: IL-2 secretion measured with the IL-2 dependent CTLL-2 cell line; settings: T-helper cell line with autologous PBMC; 10 μM peptide or 3 μg/ml PHA; 24 hours supernatant
Protocol: (§1) T-helper cell activation was tested by cell proliferation as estimated by thymidine incorporation as well as cytokine secretion. Briefly, 2×10^5 cells were incubated in triplicates in a 96-well plate with 2×10^5 irradiated autologous PBMC in the presence or absence of 10 μM peptide or 3 μg/ml PHA. After 24 hours, two portions of 50 μl supernatant were harvested and frozen and 50 μl fresh medium was added to the cells. After 54 hours, 50 μl of tritiated thymidine-containing medium (0.074 MBq/well, Hartmann Analytic, Braunschweig, Germany) was added and thymidine incorporation measured at 72 hours using a scintillation counter (Microbeta, Wallac, Freiburg, Germany). Cell proliferation is expressed as a stimulation index (S.I.), which corresponds to the ratio: (mean cpm of stimulated T cells)/(mean cpm of unstimulated T cells). IL-2 secretion was measured using the IL-2 dependent CTLL-2 cell line. Briefly, 10^4 cells were incubated in the presence of supernatants for 20-24 hours. Then, thymidine-containing-medium (0.055 MBq/well) was added for 7-8 additional hours and thymidine incorporation was measured as described above. Results are also expressed as a S.I.

[3] = system: IL-4; experiment: IL-4 secretion by sandwich ELISA; settings: T-helper cell line; 10 μM peptide or 3 μg/ml PHA
Protocol: as §1, with “cell line. […] Then, thymidine-containing-medium” for “cell line. Briefly, 10^4 cells were incubated in the presence of supernatants for 20-24 hours. Then, thymidine-containing-medium”, “a S.I. IFN-γ, IL-4 and IL-6 secretion was measured by sandwich ELISA using antibody pairs and peroxidase-conjugated streptavidin from PharMingen and according to Manufacturer's recommendations. […] OD450 was then measured and results expressed in pg/ml according to the standards.” for “a S.I.”

[4] = system: IL-6; experiment: IL-6 secretion by sandwich ELISA; settings: T-helper cell line; 10 μM peptide or 3 μg/ml PHA
Protocol: as §1, with “cell line. […] Then, thymidine-containing-medium” for “cell line. Briefly, 10^4 cells were incubated in the presence of supernatants for 20-24 hours. Then, thymidine-containing-medium”, “a S.I. IFN-γ, IL-4 and IL-6 secretion was measured by sandwich ELISA using antibody pairs and peroxidase-conjugated streptavidin from PharMingen and according to Manufacturer's recommendations. […] OD450 was then measured and results expressed in pg/ml according to the standards.” for “a S.I.”

[5] = system: IFN-γ; experiment: IFN-γ secretion by sandwich ELISA; settings: peptide-induced T-cell stimulation, 10 μM peptide; 24 hours supernatant
Protocol: as §1, with “cell line. […] Then, thymidine-containing-medium” for “cell line. Briefly, 10^4 cells were incubated in the presence of supernatants for 20-24 hours. Then, thymidine-containing-medium”, “a S.I. IFN-γ, IL-4 and IL-6 secretion was measured by sandwich ELISA using antibody pairs and peroxidase-conjugated streptavidin from PharMingen and according to Manufacturer's recommendations. […] OD450 was then measured and results expressed in pg/ml according to the standards.” for “a S.I.”

[6] = system: Ii-fusion proteins; experiment: Endosomal/lysosomal targeting of the fusion proteins (chloroquin, Western blot with mAb PIN.1); settings: transfectants incubated 4 h with increasing amounts of chloroquin (10-100 μM)
Protocol: Fusion proteins were detected by Western blot analysis using the mAb PIN.1 (Stressgen, Biomol, Hamburg, Germany) which binds to amino acid residues 12-28 of Ii. Briefly, cells were lysed as described (Hsieh, C. S., deRoos, P., Honey, K., Beers, C. & Rudensky, A. Y. (2002) J. Immunol. 168, 2618-2625), lysates were boiled in Laemmli loading buffer, separated on a 12% SDS-PAGE and transferred onto nitrocellulose membranes. After a saturation step with BSA, membranes were incubated for 1 h at room temperature with the mAb PIN.1 (1 μg/ml). Proteins were visualised using a peroxidase-coupled sheep anti-mouse IgG (Amersham Pharmacia, Freiburg, Germany). […] Cells were then lysed and proteins were detected by Western blot as described above.
It has already been described that the N-terminus of Ii is sufficient to target proteins into the MHC class II pathway (Sanderson, S., Frauwirth, K. & Shastri, N. (1995) Proc. Natl. Acad. Sci. U.S. A 92, 7217-7221, Wang, R. F., Wang, X., Atwood, A. C., Topalian, S. L. & Rosenberg, S. A. (1999) Science 284, 1351-1354, Malcherek, G., Wirblich, C., Willcox, N., Rammensee, H. G., Trowsdale, J. & Melms, A. (1998) Eur. J. Immunol. 28, 1524-1533). […] Cells were then lysed and fusion proteins were detected by Western blot.

Row | Compound | T-cell proliferation, stimulation index (S.I.) [1] | IL-2 production of the T cells [2] | IL-4 secretion [3] | IL-6 secretion [4] | IFN-γ secretion [5] [pg/mL] | fusion protein amounts (Western blot band intensity) [6]
1 | Phytohaemagglutinin [PHA] | 330 | still sensitive to PHA stimulation | highly | moderately |  | 
2 | NPPSMVAAGSVVAAV (listed as Homo sapiens) [cyclin D1 peptide, immunogenic HLA-DR4-presented cyclin D1 peptide antigen] | 5.4 | produced IL-2 in response to the peptide, although to a low extent | no IL-4 or IL-6 secretion | no IL-4 or IL-6 secretion | 3250 | 
3 | CCN(CC)CCCC(C)Nc1ccnc2cc(Cl)ccc12 (stereo not shown) [chloroquin] |  |  |  |  |  | fusion protein amounts increase with chloroquin concentrations
